According to PubChem BioAssay (NCI):
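Briefly, cells in 96-well plates were exposed to five compound concentrations for 48 h, and endpoints were estimated by linear interpolation. At the GI50, growth is halved. TGI is the concentration that stops growth completely.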

Experiments:
Experiment in all cases: NCI-60 cell line screen, 48 h
[1] = system: 786-0 renal
[2] = system: A498 renal
[3] = system: A549 NSCLC
[4] = system: ACHN renal
[5] = system: BT-549 breast
[6] = system: CAKI-1 renal
[7] = system: CCRF-CEM leukemia
[8] = system: COLO 205 colon
[9] = system: DU-145 prostate
[10] = system: HCC-2998 colon
[11] = system: HCT-116 colon
[12] = system: HCT-15 colon
[13] = system: HL-60(TB) leukemia
[14] = system: HOP-62 NSCLC
[15] = system: HOP-92 NSCLC
[16] = system: HS 578T breast
[17] = system: HT29 colon
[18] = system: IGROV1 ovarian
[19] = system: K-562 leukemia
[20] = system: KM12 colon
[21] = system: LOX IMVI melanoma
[22] = system: M14 melanoma
[23] = system: MALME-3M melanoma
[24] = system: MCF7 breast
[25] = system: MDA-MB-231 breast
[26] = system: MDA-MB-435
[27] = system: MOLT-4 leukemia
[28] = system: NCI-H226 lung
[29] = system: NCI-H23 lung

Compound: C=CCOc1ccc2c(c1)CC[C@@H]1[C@@H]2CC[C@]2(C)C(=O)/C(=N/O)C[C@@H]12
- GI50 [1]: 4.77 µM
- TGI [1]: 25.4 µM
- GI50 [2]: 1.97 µM
- TGI [2]: 21.3 µM
- GI50 [3]: 4.45 µM
- TGI [3]: > 48.8 µM
- GI50 [4]: 2.58 µM
- TGI [4]: > 37.2 µM
- GI50 [5]: 2.71 µM
- TGI [5]: 19.2 µM
- GI50 [6]: 1.9 µM
- TGI [6]: > 100 µM
- GI50 [7]: 2.51 µM
- TGI [7]: 8.67 µM
- GI50 [8]: 3.16 µM
- TGI [8]: 12.6 µM
- GI50 [9]: 3.1 µM
- TGI [9]: 15.6 µM
- GI50 [10]: 1.09 µM
- TGI [10]: 3.06 µM
- GI50 [11]: 2.04 µM
- TGI [11]: 6.82 µM
- GI50 [12]: 2.05 µM
- TGI [12]: 7.06 µM
- GI50 [13]: 0.44 µM
- TGI [13]: 6.25 µM
- GI50 [14]: 6.08 µM
- TGI [14]: > 49.3 µM
- GI50 [15]: 1.52 µM
- TGI [15]: 5.98 µM
- GI50 [16]: 1.93 µM
- TGI [16]: 11.4 µM
- GI50 [17]: 1.81 µM
- TGI [17]: 4.68 µM
- GI50 [18]: 3.42 µM
- TGI [18]: 14.2 µM
- GI50 [19]: 2.88 µM
- TGI [19]: 8.61 µM
- GI50 [20]: 3.27 µM
- TGI [20]: 11.2 µM
- GI50 [21]: 2.49 µM
- TGI [21]: 8.08 µM
- GI50 [22]: 5.95 µM
- TGI [22]: 27.8 µM
- GI50 [23]: 18 µM
- TGI [23]: 44.4 µM
- GI50 [24]: 2.72 µM
- TGI [24]: 13.2 µM
- GI50 [25]: 1.85 µM
- TGI [25]: 5.09 µM
- GI50 [26]: 3.27 µM
- TGI [26]: 17.2 µM
- GI50 [27]: 2.44 µM
- TGI [27]: 6.92 µM
- GI50 [28]: 5.06 µM
- TGI [28]: 21.7 µM
- GI50 [29]: 10.1 µM
